Legend:
[1] = male, CD1, mouse, in vivo, po, 10 mg/kg
[2] = target: SARS-COV-2 3CLpro/Mpro protease (Severe acute respiratory syndrome coronavirus 2 (2019-nCoV) (SARS-CoV-2), UniProt P0DTD1); experiment: Inhibitory effect on SARS-COV-2 3CLpro/Mpro protease by fluorescence resonance energy transfer; format: biochemical; conditions: activity intervals A-D, read-out: IC50 (nM), Inhibition on SARS-CoV-2 3CLpro/Mpro protease
in vivo = conditions: male, CD1, mouse

Row | Structure (SMILES) | IC50 [2] [nM] | further results
1 | CNc1cncc(C(=O)N2CCC[C@@H](Nc3c(C(=O)N4CCO[C@H](C)C4)cc(Br)cc3[N+](=O)[O-])C2)c1 [Example 35] | 10 to 50 | F [1]: 60%; AUC (in vivo; in vivo, iv, 1 mg/kg): 112 ng·h/mL; Vd (in vivo; in vivo, iv, 1 mg/kg): 1.28 L/kg; clearance (in vivo; in vivo, iv, 1 mg/kg): 9.12 mL/min/kg; AUC (in vivo; in vivo, po, 10 mg/kg): 668 ng·h/mL; Cmax (in vivo; in vivo, po, 10 mg/kg): 1020 ng/mL; half-life (in vivo; plasma, iv, 1 mg/kg): 8.1 min
2 | CNc1cncc(C(=O)N2C[C@H](Nc3c(C(=O)N4C[C@@H](C)O[C@@H](C)C4)cc(Br)cc3[N+](=O)[O-])C[C@@H](O[C@H]3CCOC3)C2)c1 [Example 452, (5-Bromo-2-(((3R,5R)-1-(5-(methylamino)nicotinoyl)-5-((S)-tetrahydrofuran-3-yl)oxy)piperidin-3-amino)-3-nitrophenyl)((2S,6R)-2,6-dimethylmorpholinyl)methanone] | 50 to 100 | 
3 | CO[C@H]1CN(C(=O)c2cncc3[nH]nnc23)C[C@@H]1Nc1c(C(=O)N2C[C@@H](C)O[C@@H](C)C2)cc(Br)cc1[N+](=O)[O-] [Example 454, (5-Bromo-2-(((3S,4S)-4-methoxy-1-(2-methyl-3H-1,2,3-triazole[4,5-c]pyridin-7-carbonyl)pyrrolidin-3-yl)amino)-3-nitrophenyl)((2S,6R)-2,6-dimethylmorpholinyl)methanone] | 10 to 50 | 
4 | CNc1cncc(C(=O)N2C[C@H](Nc3c(C(=O)N4C[C@@H](C)O[C@@H](C)C4)cc(Br)cc3[N+](=O)[O-])[C@@H](OCc3ccccc3)C2)c1 [Example 455] | 10 to 50 | 
5 | CNc1cncc(C(=O)N2C[C@H](Nc3c(C(=O)N4C[C@@H](C)O[C@@H](C)C4)cc(Br)cc3[N+](=O)[O-])[C@@H](OCc3ccc(OC)nc3)C2)c1 [Example 456, (5-Bromo-2-(((3S,4S)-4-((6-methoxypyridin-3-yl)methoxy)-1-(5-methylamino)nicotinoyl)pyrrolidin-3-amino)-3-nitrophenyl)((2S,6R)-2,6-dimethylmorpholinyl)methanone] | 10 to 50 | 
6 | CNc1cncc(C(=O)N2C[C@H](Nc3c(C(=O)N4C[C@@H](C)O[C@@H](C)C4)cc(Br)cc3[N+](=O)[O-])[C@@H](OCc3ccc(C(F)(F)F)nc3)C2)c1 [Example 457, (5-Bromo-2-((3S,4S)-1-(5-(methylamino)nicotinoyl)-4-((6-(trifluoromethyl)pyridin-3-yl)methoxy)pyrrolidin-3-amino)-3-nitrophenyl)((2S,6R)-2,6-dimethylmorpholinyl)methanone] | 100 to 200 | 
7 | CNc1cncc(C(=O)N2C[C@H](Nc3c(C(=O)N4C[C@@H](C)O[C@@H](C)C4)cc(Br)cc3[N+](=O)[O-])[C@@H](OCc3ccccn3)C2)c1 [Example 458] | 10 to 50 | 
8 | CNc1cncc(C(=O)N2C[C@H](Nc3c(C(=O)N4C[C@@H](C)O[C@@H](C)C4)cc(Br)cc3[N+](=O)[O-])[C@@H](OCc3ccc(F)cn3)C2)c1 [Example 459] | 10 to 50 | 
9 | CNc1cncc(C(=O)N2C[C@H](Nc3c(C(=O)N4C[C@@H](C)O[C@@H](C)C4)cc(Br)cc3[N+](=O)[O-])[C@@H](OCc3ncco3)C2)c1 [Example 460] | 10 to 50 | 
10 | CNc1cncc(C(=O)N2C[C@H](Nc3c(C(=O)N4C[C@@H](C)O[C@@H](C)C4)cc(Br)cc3[N+](=O)[O-])[C@@H](OCc3nccs3)C2)c1 [Example 461] | 10 to 50 | 
11 | CNc1cncc(C(=O)N2C[C@H](Nc3c(C(=O)N4C[C@@H](C)O[C@@H](C)C4)cc(Br)cc3[N+](=O)[O-])[C@@H](OCc3cncn3C)C2)c1 [Example 462, (5-Bromo-2-(((3S,4S)-4-((1-methyl-1H-imidazol-5-yl)methoxy)-1-(5-(methylamino)nicotinoyl)pyrrolidin-3-yl)amino)-3-nitrophenyl)((2S,6R)-2,6-dimethylmorpholinyl)methanone] | 10 to 50 | 

Source: patent US20250042889A1, “3CLPRO PROTEASE INHIBITOR” (SHANGHAI QILU PHARMACEUTICAL RESEARCH AND DEVELOPMENT …, priority 2021, published 2025)
